Where two headings read alike, the source gives them in different places.
Assays:
[1] = test system: HBeAg (surrogate marker for cccDNA) in HepDES19 cells; test: Engineered HepDES19 primary screen assay (HBeAg ELISA); type: cell-based, HBV; details: Hepatitis B virus, HepDES19, 120 h, read-out: IC50 (HBeAg level, HepDES19 primary screen assay), HepDES19 cells, 5 days compound incubation, HBeAg ELISA
In short: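 IC50 values come from 4-parameter logistic fits of HBeAg ELISA signal, the cccDNA surrogate, with CCK-8 run in parallel for viability. Compounds at half-log dilutions with 1% DMSO were applied for 5 days at 37 °C to HepDES19 cells previously cultured 8 days without Tet.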

[2] = test system: HBsAg in HBV-infected PHH; test: Cryopreserved primary human hepatocytes (PHH) HBV infection assay, extracellular HBsAg (CLIA); type: cell-based
In short: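 Cryopreserved PHH were infected with 5.8×10^6 HBV genome equivalents in medium with 4% PEG8000 and 1% DMSO. After 9 days of treatment, extracellular HBsAg was measured by CLIA, and IC50 was derived from a 4-parameter logistic fit.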

[3] = Human microsome stability assay; type: in vitro ADME; details: human liver microsomes, 1 μM test compound, 0.5 mg/mL microsomal protein, 37° C., pH 7.4, 0-30 minutes
In short: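 Parent compound remaining was measured by LC-MS/MS at 0, 3, 6, 9, 15 and 30 min, following ACN quench. Reactions held 1 μM compound and 0.5 mg/mL human liver microsomal protein in pH 7.4 phosphate buffer at 37 °C, started by NADPH regeneration (1 mM NADP, 1 mM MgCl2); controls lacked NADPH.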

[4] = Hepatitis B virus, Hepatocyte, 216 h, read-out: HBsAg IC50, Cryopreserved PHH infected with HBV, 9 days post-compound treatment, extracellular HBsAg

| Structure (SMILES) | IC50 [1] [µM] | IC50 [2, 4] [µM] | Clearance of Human microsome [3] [mL/min/kg] | IC50 ([2]; read-out: HBsAg IC50, Cryopreserved PHH infected with HBV, 9 days post-compound treatment, extracellular HBsAg) [µM] |
| --- | --- | --- | --- | --- |
| COc1ccc(-c2cc(=O)c3cccc(Cl)c3o2)c(O[C@H]2C[C@@H](C(=O)O)C2)c1 [Example B011-A, Cis-3-[2-(8-chloro-4-oxo-chromen-2-yl)-5-methoxy-phenoxy]cyclobutanecarboxylic acid] | 0.851 | 2.32 | 8.35 |  |
| Cc1cc(-c2cc(=O)c3cccc(Cl)c3o2)c(O[C@H]2C[C@@H](C(=O)O)C2)cc1Cl [Example B012-A, Cis-3-[5-chloro-2-(8-chloro-4-oxo-chromen-2-yl)-4-methyl-phenoxy]cyclobutanecarboxylic acid] | 3.27 |  | 6.15 | 6.01 |
| O=c1cc(-c2ccc(OC(F)(F)F)cc2O[C@H]2C[C@@H](C(=O)O)C2)oc2c(Cl)cccc12 [Example B015-A, Cis-3-[2-(8-chloro-4-oxo-chromen-2-yl)-5-(trifluoromethoxy)phenoxy]cyclobutanecarboxylic acid] | 3.79 | 2.57 | 6.15 |  |
| Cc1ccc(-c2cc(=O)c3cccc(Cl)c3o2)c(O[C@H]2C[C@@H](C(=O)O)C2)c1 [Example B018-A, Cis-3-[2-(8-chloro-4-oxo-chromen-2-yl)-5-methyl-phenoxy]cyclobutanecarboxylic acid] | 0.146 | 0.887 | 6.15 |  |
| O=c1cc(-c2ccccc2O[C@H]2C[C@@H](C(=O)O)C2)oc2c(Br)cccc12 [Example B022-A, Cis-3-[2-(8-bromo-4-oxo-chromen-2-yl)phenoxy]cyclobutanecarboxylic acid] | 0.112 | 3.83 | 6.15 |  |
| O=c1cc(-c2cc(C(F)(F)F)c(Br)cc2O[C@H]2C[C@H](C(=O)O)C2)oc2c(Cl)cccc12 [Example B024, Trans-3-[5-bromo-2-(8-chloro-4-oxo-chromen-2-yl)-4-(trifluoromethyl)phenoxy]cyclobutanecarboxylic acid] | 1.64 | 6.84 | 7.41 |  |
| O=c1cc(-c2ccccc2OC[C@H]2C[C@@H](C(=O)O)C2)oc2c(Cl)cccc12 [Example B026-A, Cis-3-[[2-(8-chloro-4-oxo-chromen-2-yl)phenoxy]methyl]cyclobutanecarboxylic acid] | 0.0394 | 4.97 | 6.15 |  |
| O=c1cc(-c2ccccc2OC[C@H]2C[C@H](C(=O)O)C2)oc2c(Cl)cccc12 [Example B026-B, Trans-3-[[2-(8-chloro-4-oxo-chromen-2-yl)phenoxy]methyl]cyclobutanecarboxylic acid] | 0.138 | 3.19 | 6.15 |  |
| O=c1cc(-c2ccc(C3CC3)cc2O[C@H]2C[C@@H](C(=O)O)C2)oc2c(Cl)cccc12 [Example B035-A, cis-3-[2-(8-chloro-4-oxo-chromen-2-yl)-5-cyclopropyl-phenoxy]cyclobutanecarboxylic acid] | 0.16 | 1.46 | 8.46 |  |
| O=c1cc(-c2ccc(Br)cc2O[C@H]2C[C@@H](C(=O)O)C2)oc2c(Cl)ccc(O)c12 [Example B036-A, Cis-3-[5-bromo-2-(8-chloro-5-hydroxy-4-oxo-chromen-2-yl)phenoxy]cyclobutanecarboxylic acid] | 0.926 | 9.5 | 6.15 |  |
| Cc1ccc(-c2cc(=O)c3c(O)ccc(Cl)c3o2)c(O[C@H]2C[C@@H](C(=O)O)C2)c1 [Example B037-A, Cis-3-[2-(8-chloro-5-hydroxy-4-oxo-chromen-2-yl)-5-methyl-phenoxy]cyclobutanecarboxylic acid] | 4.43 | 2.04 | 9.86 |  |
| O=c1cc(-c2ccc(C(F)(F)F)cc2O[C@H]2C[C@H](C(=O)NS(=O)(=O)C3CC3)C2)oc2c(Cl)cccc12 [Example B043-B, trans-3-[2-(8-chloro-4-oxo-chromen-2-yl)-5-(trifluoromethyl)phenoxy]-N-cyclopropylsulfonyl-cyclobutanecarboxamide] | 1.14 | 3.7 | 6.15 |  |
| CS(=O)(=O)NC(=O)[C@H]1C[C@@H](Oc2cc(OC(F)(F)F)ccc2-c2cc(=O)c3cccc(Cl)c3o2)C1 [Example B047-A, Cis-3-[2-(8-chloro-4-oxo-chromen-2-yl)-5-(trifluoromethoxy)phenoxy]-N-methylsulfonyl-cyclobutanecarboxamide] | 1.96 | 5.54 | 6.15 |  |
| COc1cc(O[C@H]2C[C@H](C(=O)NS(C)(=O)=O)C2)c(-c2cc(=O)c3cccc(Cl)c3o2)cc1C [Example B050-B, Trans-3-[2-(8-chloro-4-oxo-chromen-2-yl)-5-methoxy-4-methyl-phenoxy]-N-methylsulfonyl-cyclobutanecarboxamide] | 6.08 | 9.46 | 7.69 |  |
| Cc1ccc(-c2cc(=O)c3cccc(Cl)c3o2)c(O[C@H]2C[C@@H](C(=O)NS(C)(=O)=O)C2)c1 [Example B051-A, Cis-3-[2-(8-chloro-4-oxo-chromen-2-yl)-5-methyl-phenoxy]-N-methylsulfonyl-cyclobutanecarboxamide] | 6.18 | 3.21 | 6.15 |  |
| Cc1ccc(-c2cc(=O)c3cccc(Cl)c3o2)c(O[C@H]2C[C@H](C(=O)NS(C)(=O)=O)C2)c1 [Example B051-B, Trans-3-[2-(8-chloro-4-oxo-chromen-2-yl)-5-methyl-phenoxy]-N-methylsulfonyl-cyclobutanecarboxamide] | 9.22 | 5.3 | 6.97 |  |
| Cc1ccc(-c2cc(=O)c3cccc(Cl)c3o2)c(O[C@H]2C[C@@H](C(=O)NS(=O)(=O)C3CC3)C2)c1 [Example B052-A, Cis-3-[2-(8-chloro-4-oxo-chromen-2-yl)-5-methyl-phenoxy]-N-cyclopropylsulfonyl-cyclobutanecarboxamide] | 10.7 | 8.48 | 6.15 |  |
| Cc1ccc(-c2cc(=O)c3cccc(Cl)c3o2)c(O[C@H]2C[C@H](C(=O)NS(=O)(=O)C3CC3)C2)c1 [Example B052-B, Trans-3-[2-(8-chloro-4-oxo-chromen-2-yl)-5-methyl-phenoxy]-N-cyclopropylsulfonyl-cyclobutanecarboxamide] | 16.3 | 7.98 | 6.15 |  |
| O=C(O)C(O)COc1cc(C(F)(F)F)ccc1-c1cc(=O)c2cccc(Cl)c2o1 (stereo not drawn) [Example B073, 3-[2-(8-chloro-4-oxo-chromen-2-yl)-5-(trifluoromethyl)phenoxy]-2-hydroxy-propanoic acid] | 1.04 | 5.97 | 6.15 |  |
| O=C(O)[C@@H]1C[C@@H](Oc2cc(C(F)(F)F)ccc2-c2cc(=O)c3cccc(Cl)c3o2)CN1S(=O)(=O)c1ccccc1 [Example B076, (2S,4R)-1-(benzenesulfonyl)-4-[2-(8-chloro-4-oxo-chromen-2-yl)-5-(trifluoromethyl)phenoxy]pyrrolidine-2-carboxylic acid] | 0.111 | 1.31 | 6.15 |  |
| O=C(O)[C@@H]1C[C@H](Oc2cc(Br)ccc2-c2cc(=O)c3cccc(Cl)c3o2)CN1S(=O)(=O)c1ccccc1 [Example B082] | 1.98 | 4.8 | 6.15 |  |
| O=C(O)[C@@H]1C[C@H](Oc2cc(Br)ccc2-c2cc(=O)c3cccc(Cl)c3o2)CN1S(=O)(=O)C1CC1 [Example B083, (2S,4S)-4-[5-bromo-2-(8-chloro-4-oxo-chromen-2-yl)phenoxy]-1-cyclopropylsulfonyl-pyrrolidine-2-carboxylic acid] | 0.704 | 3.24 | 6.15 |  |
| Cc1ccc(-c2cc(=O)c3cccc(Cl)c3o2)c(OCCCOCC(=O)O)c1 [Example C002, 2-[3-[2-(8-chloro-4-oxo-chromen-2-yl)-5-methyl-phenoxy]propoxy]acetic acid] | 0.348 | 2.43 | 6.15 |  |
| O=C(O)COCCOc1cc(Br)ccc1-c1cc(=O)c2cccc(Cl)c2o1 [Example C006, 2-[2-[5-bromo-2-(8-chloro-4-oxo-chromen-2-yl)phenoxy]ethoxy]acetic acid] | 1.26 | 3.74 | 6.15 |  |
| Cc1cc(-c2cc(=O)c3cccc(Cl)c3o2)c(OCCCOCC(=O)O)cc1Br [Example C011, 2-[3-[5-bromo-2-(8-chloro-4-oxo-chromen-2-yl)-4-methyl-phenoxy]propoxy]acetic acid] | 10.6 | 8.5 | 6.15 |  |

From patent publication US11708344B2, “Flavone derivatives for the treatment and prophylaxis of hepatitis B virus disease” (Hoffmann-La Roche Inc., priority 2018, dated 2023)
